The results in this text go back to patent US20040197333A1, “Use of TGF-beta antagonists to inhibit tumor cell formation or progression” (Cornell Research Foundation, Inc., priority 2000, published 2004).

In this test the test system is A-549 cells. The experiment in a line: Scanning electron microscopy of cell morphology (invasive phenotype). The class given is cell-based, human. Conditions: 2ngm^−1 recombinant TGF-β1 protein. From the text:
Scanning electron microscopy. […] Cells were fixed with PBS, pH 7.4, containing 2.0% glutaraldehyde, and processed as previously described (Ref 17). Samples were examined using a JEOL 25SIII electron microscope.
A-549 cells express functional receptors for TGF-β, and their growth and functions are regulated by TGF-β (refs. 7 and 8). The experiments with A-549 cells were established ex vivo to avoid any confounding effects of CsA-associated inhibition of in vivo immune surveillance mechanism(s).

“recombinant TGF-β1 protein: recombinant TGF-β1 protein added to A-549 cells”: the “morphological alterations in A-549 cells” value is listed as “induced morphological alterations in A-549 cells that were similar to those elicited by CsA”.
